Test results from patent publication US20240252586A1, “ENGINEERED ANTIMICROBIAL PEPTIDES AND USAGE THEREOF” (priority 2021, published 2024).
Values joined by “and” are separate entries in the source; they are usually repeats but may differ in a detail not shown here. Identical values can stand only once. Like-named read-outs stand apart in the source and are kept apart here. Where no end group is shown, it is not given here.

Assays:
[1] = tested on: Escherichia coli ATCC 25922; experiment: Broth microdilution MIC, QC of stock (Study 2); type: cell-based
Procedure: (§1) The activity of SEQ ID NO: 1 stocks against relevant ATCC reference isolates was determined by broth microdilution for QC purposes in accordance with guidelines described by the Clinical and Laboratory Standards Institute.
(§2) The wells in columns 2-12 in a standard 96-well microdilution plate were filled with 150 μL of 0.002% P-80 PBS. […] Serial two-fold dilutions were conducted through column 11. The wells of column 12 contained no drug and served as the organism growth control well. This would become the “mother” plate from which “daughter” or test plates would be prepared. The daughter plates were loaded with 190 μL of CAMHB+0.002% polysorbate-80 (P-80), or RPMI with 0.002% P-80 by hand-pipetting.
(§3) A standardized inoculum of each evaluated organism was prepared per CLSI methods. Growth from agar plates was used to prepare a 0.5 McFarland suspension in saline for each organism. The 0.5 McFarland suspensions were diluted 1:20 in saline, and the diluted suspensions were used as the test inocula. The inocula were then transferred to daughter plates by delivering 10 μL of standardized inoculum into each well of the daughter plate, resulting in a final concentration ranging between 2.5×10^5 to 5×10^5 CFU/mL per well.
(§4) Plates were stacked and covered with a lid on the top plate, placed into plastic bags, and incubated at 35° C. for 16-20 hr in ambient air. Growth in the microplates was viewed from the bottom using a plate viewer. […] The MIC was read and recorded as the lowest concentration of drug (SEQ ID NO: 1) that inhibited visible growth of the organism.

[2] = tested on: Pseudomonas aeruginosa ATCC 27853; experiment: Broth microdilution MIC, QC of stock (Study 2); type: cell-based
Procedure: as §1, §2, §3, §4

[3] = tested on: Staphylococcus aureus ATCC 29213; experiment: Broth microdilution MIC, QC of stock (Study 2); type: cell-based
Procedure: as §1, §2, §3, §4

[4] = tested on: CoNS non-epidermidis; experiment: Broth microdilution MIC, PJI isolates (Example 1); type: cell-based, coagulase-negative staphylococci; details: RPMI; N = 53
Procedure: (§5) Imipenem, levofloxacin, tigecycline, linezolid, vancomycin, oxacillin, ceftazidime, colistin, and amikacin were tested as comparators. Testing was conducted in accordance with guidelines from the Clinical and Laboratory Standards Institute (CLSI; M7 and M100). Test organisms comprised reference strains from the American Type Culture Collection, the Centers for Disease Control Antibiotic Reference Bank and clinical isolates from the Micromyx repository.

[5] = tested on: P. aeruginosa ATCC 27853
Procedure: (§6) SEQ ID NO: 1 stocks were made at 5.12 mg/mL in water adjusted to pH of 5.0 with 1% glacial acetic acid.
(§7) The test organisms (Table 7) consisted of clinical isolates from the Micromyx (MMX) repository, a reference isolate from the American Type Culture Collection (ATCC, Manassas, VA) and the Centers for Disease Control (CDC, Atlanta GA). Upon initial receipt, the isolates were streaked under suitable conditions onto agar medium appropriate to each organism. The organisms were incubated for 18-24 hr at 35° C. in ambient atmosphere. Colonies harvested from these growth plates were resuspended in the appropriate medium containing a cryoprotectant. Aliquots of each suspension were then stored frozen at −80° C. Prior to testing, all organisms were cultured onto trypticase soy agar containing 5% sheep blood. The agar plates were incubated as described above.
(§8) The Test media used for MIC and FIC were testing were cation-adjusted Mueller-Hinton broth (CAMHB) and Roswell Park Memorial Institute (RPMI-1640), buffered with 3-(N-morpholino)propanesulfonic acid (MOPS). Each test media was supplemented with 0.002% Tween-80 (P-80) prior to testing.
(§9) MIC assay plates were prepared for broth microdilution in accordance with guidelines from the Clinical and Laboratory Standards Institute (CLSI); automated liquid handlers (Biomek 3000 and Biomek FX) and multi-channel pipettes were used to conduct serial dilutions and liquid transfers. MIC assay plates were prepared using a 96-well, deep-well microdilution plate that mimicked the layout of the daughter plates.
(§10) For the mother plate, wells across the standard 96-well microdilution plate were filled with 150 μL of sterile saline 0.002% P-80 in columns 2 through 12. […] The Biomek 300 was used to make eleven 2-fold serial dilutions horizontally across each row of the plate from columns 2 through 11. The Biomek FX was then used to transfer 5 μL of the SEQ ID NO: 1 and saline 0.002% P-80 to the daughter plates.
(§11) A standardized inoculum of each organism was prepared per CLSI methods. Suspensions were prepared to equal a 0.5 McFarland standard followed by a 1:10 dilution into test medium. The inocula were dispensed into sterile reservoirs divided by length and the Biomek 3000 was used to inoculate the plates. Daughter plates were placed on the Biomek 3000 work surface in reverse orientation so that inoculation took place from low to high drug concentration. The Biomek 3000 delivered 10 μL of the diluted suspension into each well. These inoculations yielded a final cell concentration in the daughter plates of approximately 5×10^5 CFU/mL in each well. Plates were incubated at 35° C. for 16-20 hr. The microplates were viewed from the bottom using a plate viewer and the MIC was recorded as the lowest concentration of drug that inhibited visible growth of the organism.

[6] = tested on: E. Coli ATCC BAA-2469
Procedure: as §6, §7, §8, §9, §10, §11

[7] = tested on: E. Coli ATCC 25922
Procedure: as §6, §7, §8, §9, §10, §11

[8] = tested on: S. aureus ATCC 29213
Procedure: as §6, §7, §8, §9, §10, §11

[9] = tested on: E. Coli CDC 0451
Procedure: as §6, §7, §8, §9, §10, §11

[10] = tested on: S. epidermidis MMX 8655
Procedure: as §6, §7, §8, §9, §10, §11

[11] = tested on: S. aureus NRS 382
Procedure: as §6, §7, §8, §9, §10, §11

[12] = tested on: P. aeruginosa CDC 0515
Procedure: as §6, §7, §8, §9, §10, §11

[13] = tested on: S. aureus NRS 384
Procedure: as §6, §7, §8, §9, §10, §11

[14] = tested on: S. epidermidis MMX 3628
Procedure: as §6, §7, §8, §9, §10, §11

[15] = tested on: P. aeruginosa; experiment: Broth microdilution MIC, PJI isolates (Example 1); type: cell-based, Pseudomonas aeruginosa; details: RPMI; N = 20
Procedure: as §5

Sequence: RRWVRRVRRVWRRVVRVVRRWVRR [SEQ ID NO: 1]
- MIC ([1]; CAMHB + 0.002% P-80): 2 µg/mL
- MIC ([1]; RPMI + 0.002% P-80): 0.5 µg/mL
- MIC ([2]; CAMHB + 0.002% P-80): 4 µg/mL
- MIC ([2]; RPMI + 0.002% P-80): 0.5 µg/mL
- MIC ([3]; CAMHB + 0.002% P-80): 4 µg/mL
- MIC ([3]; RPMI + 0.002% P-80): 0.12 µg/mL
- MIC50 [4]: 0.06 µg/mL
- MIC90 [4]: 0.06 µg/mL
- MIC ([5]; CAMHB): 8 µg/mL
- MIC ([5]; RPMI): 2 µg/mL
- MIC ([6]; CAMHB): 4 µg/mL
- MIC ([6]; RPMI): 0.5 µg/mL
- MIC ([7]; CAMHB): 4 µg/mL
- MIC ([7]; RPMI): 0.5 µg/mL
- MIC ([8]; CAMHB): 4 µg/mL
- MIC ([8]; RPMI): 0.5 µg/mL
- MIC ([9]; CAMHB): 1 µg/mL and 2 µg/mL
- MIC ([9]; RPMI): 0.5 µg/mL
- MIC ([10]; CAMHB): 0.5 µg/mL
- MIC ([10]; RPMI): 0.12 µg/mL
- MIC ([10]; stated in FIG. 3 legends (time-kill)): 1 µg/mL
- MIC ([11]; RPMI): 0.5 µg/mL
- MIC ([11]; stated in FIG. 2 legends (time-kill), printed S. aureus NRS 382): 8 µg/mL
- MIC ([12]; CAMHB): 8 µg/mL
- MIC ([12]; RPMI): 1 µg/mL
- MIC ([13]; CAMHB): 4 µg/mL
- MIC ([13]; RPMI): 0.5 µg/mL
- MIC ([14]; CAMHB): 0.25 µg/mL
- MIC ([14]; RPMI): 0.12 µg/mL
- MIC50 [15]: 1 µg/mL
- MIC90 [15]: 1 µg/mL
